US8703961B2, “Thiazole derivatives for the treatment of diseases such as cancer” (Merck Patent GmbH, priority 2009, dated 2014)

Assays:
[1] = target: T1, NUAK1 (Homo sapiens, UniProt O60285); test: filter binding assay of NUAK1 inhibition; assay type: biochemical; details: for IC50: derived from % inhibition at 1 μM; for remaining activity at 1 µM: read-out: residual kinase activity NUAK1
T1 construct: purchased
T1 sequence (O60285 1-661): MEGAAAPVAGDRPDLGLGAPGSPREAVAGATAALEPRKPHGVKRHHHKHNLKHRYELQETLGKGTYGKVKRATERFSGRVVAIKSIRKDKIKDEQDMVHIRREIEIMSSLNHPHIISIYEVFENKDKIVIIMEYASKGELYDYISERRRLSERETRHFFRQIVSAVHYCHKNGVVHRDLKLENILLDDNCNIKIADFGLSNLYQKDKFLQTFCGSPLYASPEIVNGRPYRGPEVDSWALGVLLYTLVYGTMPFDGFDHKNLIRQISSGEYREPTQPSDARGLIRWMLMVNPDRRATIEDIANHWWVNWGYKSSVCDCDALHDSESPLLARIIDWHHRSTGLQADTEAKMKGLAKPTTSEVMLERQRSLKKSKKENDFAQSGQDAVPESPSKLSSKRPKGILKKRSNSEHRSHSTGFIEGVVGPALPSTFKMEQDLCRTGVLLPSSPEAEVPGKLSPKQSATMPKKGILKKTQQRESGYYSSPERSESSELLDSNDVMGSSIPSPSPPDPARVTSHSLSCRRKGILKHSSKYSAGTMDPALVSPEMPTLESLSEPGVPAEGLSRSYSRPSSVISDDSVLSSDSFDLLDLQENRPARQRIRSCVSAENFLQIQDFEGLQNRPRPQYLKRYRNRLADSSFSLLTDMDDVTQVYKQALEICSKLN
Protocol: (§1) All kinase assays were carried out using the Multidrop 384 from Thermo-Fisher at room temperature in a total assay volume of 25.5 μl. 15 μl of an enzyme mix comprising enzyme and substrate in buffer are added to the test batch comprising either 0.5 μl of test substance, DMSO control or empty container. Test substances are pre-incubated in the presence of the enzyme and substrate for 5 minutes before the reaction is initiated by addition of 10 μl of ATP (concentration kinase-dependent of […]). The reaction is terminated by addition of 5 μl of orthophosphoric acid (50 mM). The test containers are then transferred onto P81 Unifilter plates by means of a “Packard Harvester” and dried in air. The dry Unifilter plates are sealed after the addition of MicroScint O, and the radioactivity is determined in a Packard Topcount NXT.
NUAK1 (5-20 mU diluted in 50 mM Tris pH 7.5, 0.1 mM EGTA, 0.1% β-mercaptoethanol, 1 mg/ml of BSA) is tested against ALNRTSSDSALHRRR as substrate. The final volume of 25.5 μl contains 50 mM Tris pH 7.5, 0.1 mM EGTA, 0.3 mM ALNRTSSDSALHRRR, 10 mM magnesium acetate and 0.02 mM [^33P-γ-ATP] (50-1000 cpm/pmole) and is incubated at room temperature for 30 min. Tests are terminated by the addition of 5 μl of a 0.5 M (3%) orthophosphoric acid soln. and then transferred onto P81 Unifilter plates and washed with 50 mM orthophosphoric acid buffer.

[2] = target: T2, PDPK1 (Homo sapiens, UniProt O15530); test: filter binding kinase assay (second PDPK1 line); assay type: biochemical; details: derived from % inhibition at 1 μM
T2 construct: purchased
T2 sequence (O15530 1-556): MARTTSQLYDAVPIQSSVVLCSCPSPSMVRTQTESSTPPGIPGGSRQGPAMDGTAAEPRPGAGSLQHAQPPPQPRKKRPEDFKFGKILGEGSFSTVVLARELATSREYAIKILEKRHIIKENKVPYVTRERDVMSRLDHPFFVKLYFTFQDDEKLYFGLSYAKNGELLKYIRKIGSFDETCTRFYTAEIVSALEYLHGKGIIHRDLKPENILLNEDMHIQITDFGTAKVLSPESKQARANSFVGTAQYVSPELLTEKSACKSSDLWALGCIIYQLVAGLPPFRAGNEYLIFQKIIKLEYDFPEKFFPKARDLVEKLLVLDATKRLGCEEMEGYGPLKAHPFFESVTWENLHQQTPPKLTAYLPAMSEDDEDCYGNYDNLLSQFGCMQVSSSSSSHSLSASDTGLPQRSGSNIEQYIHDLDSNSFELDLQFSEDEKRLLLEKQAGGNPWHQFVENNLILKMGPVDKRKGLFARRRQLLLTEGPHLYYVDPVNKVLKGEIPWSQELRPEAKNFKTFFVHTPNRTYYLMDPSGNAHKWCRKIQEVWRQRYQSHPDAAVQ
Protocol: as §1

[3] = target: T3, MET (Homo sapiens, UniProt P08581); test: filter binding kinase assay; assay type: biochemical; details: derived from % inhibition at 1 μM
T3 construct: 6His (N); purchased Upstate 14-526; host or cells: insect cells (Sf21; S. frugiperda), baculovirus
T3 sequence (P08581 25-1390): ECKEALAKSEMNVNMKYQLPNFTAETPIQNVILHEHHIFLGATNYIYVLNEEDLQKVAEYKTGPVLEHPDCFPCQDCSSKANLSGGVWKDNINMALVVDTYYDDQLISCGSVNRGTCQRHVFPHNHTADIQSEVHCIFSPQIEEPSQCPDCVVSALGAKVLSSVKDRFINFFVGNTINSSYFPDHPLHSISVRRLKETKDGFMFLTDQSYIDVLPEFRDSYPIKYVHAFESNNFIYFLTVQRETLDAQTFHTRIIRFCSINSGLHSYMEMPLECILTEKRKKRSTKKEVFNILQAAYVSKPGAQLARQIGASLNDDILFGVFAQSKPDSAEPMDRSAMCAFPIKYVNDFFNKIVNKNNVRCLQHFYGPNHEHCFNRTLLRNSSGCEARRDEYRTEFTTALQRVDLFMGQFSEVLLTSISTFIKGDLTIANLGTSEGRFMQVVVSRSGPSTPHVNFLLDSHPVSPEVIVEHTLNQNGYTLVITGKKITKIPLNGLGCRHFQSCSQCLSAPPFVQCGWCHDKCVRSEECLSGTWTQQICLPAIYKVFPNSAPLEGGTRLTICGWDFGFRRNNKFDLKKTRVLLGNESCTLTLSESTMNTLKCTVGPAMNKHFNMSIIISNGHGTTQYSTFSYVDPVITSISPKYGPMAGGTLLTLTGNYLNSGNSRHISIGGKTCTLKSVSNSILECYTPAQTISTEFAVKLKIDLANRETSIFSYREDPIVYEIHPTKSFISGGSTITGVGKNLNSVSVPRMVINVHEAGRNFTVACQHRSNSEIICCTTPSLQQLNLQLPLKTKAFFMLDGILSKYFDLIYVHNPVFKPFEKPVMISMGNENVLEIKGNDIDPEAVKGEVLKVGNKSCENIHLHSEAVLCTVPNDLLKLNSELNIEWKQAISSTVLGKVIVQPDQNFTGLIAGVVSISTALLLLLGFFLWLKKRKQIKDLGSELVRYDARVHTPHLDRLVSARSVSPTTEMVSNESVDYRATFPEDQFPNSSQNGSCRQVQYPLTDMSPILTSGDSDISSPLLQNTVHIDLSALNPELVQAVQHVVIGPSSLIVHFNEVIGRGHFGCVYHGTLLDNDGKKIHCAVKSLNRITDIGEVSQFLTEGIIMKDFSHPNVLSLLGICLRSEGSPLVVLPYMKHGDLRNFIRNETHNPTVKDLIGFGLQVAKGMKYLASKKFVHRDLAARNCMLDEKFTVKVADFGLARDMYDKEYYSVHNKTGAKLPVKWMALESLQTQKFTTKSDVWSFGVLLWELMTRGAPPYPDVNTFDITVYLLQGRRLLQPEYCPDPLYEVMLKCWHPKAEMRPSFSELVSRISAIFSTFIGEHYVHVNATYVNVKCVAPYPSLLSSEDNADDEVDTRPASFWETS
Method in brief: (§2)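 Compound was pre-incubated with enzyme and substrate for 5 minutes at room temperature, then the reaction was started with ATP (added solution at 5, 20 or 50 […] depending on kinase). Orthophosphoric acid stopped it, and phosphorylated substrate captured on P81 filters was quantified by scintillation counting.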

[4] = target: T4, MAPKAPK5 (Homo sapiens, UniProt Q8IW41); test: filter binding kinase assay; assay type: biochemical; details: derived from % inhibition at 1 μM
T4 construct: purchased
T4 sequence (Q8IW41 1-473): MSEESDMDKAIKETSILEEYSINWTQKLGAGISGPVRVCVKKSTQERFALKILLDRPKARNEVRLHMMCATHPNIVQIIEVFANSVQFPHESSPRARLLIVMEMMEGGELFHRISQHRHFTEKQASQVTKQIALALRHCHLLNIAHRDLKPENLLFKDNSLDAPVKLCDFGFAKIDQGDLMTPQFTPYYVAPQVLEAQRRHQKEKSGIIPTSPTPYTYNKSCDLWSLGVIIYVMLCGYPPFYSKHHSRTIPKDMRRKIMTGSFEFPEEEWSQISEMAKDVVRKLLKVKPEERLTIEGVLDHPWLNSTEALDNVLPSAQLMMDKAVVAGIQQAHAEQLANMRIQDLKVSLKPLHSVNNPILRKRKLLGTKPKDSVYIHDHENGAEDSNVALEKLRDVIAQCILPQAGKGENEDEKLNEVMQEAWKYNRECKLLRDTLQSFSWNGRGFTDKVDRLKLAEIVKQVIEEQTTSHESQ
Method in brief: as §2

[5] = target: T5, ROCK2 (Rock II) (Homo sapiens, UniProt O75116); test: filter binding kinase assay; assay type: biochemical; details: for IC50: derived from % inhibition at 1 μM
T5 construct: purchased
Method in brief: as §2

[6] = target: T6, HIPK3 (Homo sapiens, UniProt Q9H422); test: filter binding kinase assay; assay type: biochemical; details: derived from % inhibition at 1 μM
T6 construct: purchased
T6 sequence (Q9H422 whole entry, species assumed): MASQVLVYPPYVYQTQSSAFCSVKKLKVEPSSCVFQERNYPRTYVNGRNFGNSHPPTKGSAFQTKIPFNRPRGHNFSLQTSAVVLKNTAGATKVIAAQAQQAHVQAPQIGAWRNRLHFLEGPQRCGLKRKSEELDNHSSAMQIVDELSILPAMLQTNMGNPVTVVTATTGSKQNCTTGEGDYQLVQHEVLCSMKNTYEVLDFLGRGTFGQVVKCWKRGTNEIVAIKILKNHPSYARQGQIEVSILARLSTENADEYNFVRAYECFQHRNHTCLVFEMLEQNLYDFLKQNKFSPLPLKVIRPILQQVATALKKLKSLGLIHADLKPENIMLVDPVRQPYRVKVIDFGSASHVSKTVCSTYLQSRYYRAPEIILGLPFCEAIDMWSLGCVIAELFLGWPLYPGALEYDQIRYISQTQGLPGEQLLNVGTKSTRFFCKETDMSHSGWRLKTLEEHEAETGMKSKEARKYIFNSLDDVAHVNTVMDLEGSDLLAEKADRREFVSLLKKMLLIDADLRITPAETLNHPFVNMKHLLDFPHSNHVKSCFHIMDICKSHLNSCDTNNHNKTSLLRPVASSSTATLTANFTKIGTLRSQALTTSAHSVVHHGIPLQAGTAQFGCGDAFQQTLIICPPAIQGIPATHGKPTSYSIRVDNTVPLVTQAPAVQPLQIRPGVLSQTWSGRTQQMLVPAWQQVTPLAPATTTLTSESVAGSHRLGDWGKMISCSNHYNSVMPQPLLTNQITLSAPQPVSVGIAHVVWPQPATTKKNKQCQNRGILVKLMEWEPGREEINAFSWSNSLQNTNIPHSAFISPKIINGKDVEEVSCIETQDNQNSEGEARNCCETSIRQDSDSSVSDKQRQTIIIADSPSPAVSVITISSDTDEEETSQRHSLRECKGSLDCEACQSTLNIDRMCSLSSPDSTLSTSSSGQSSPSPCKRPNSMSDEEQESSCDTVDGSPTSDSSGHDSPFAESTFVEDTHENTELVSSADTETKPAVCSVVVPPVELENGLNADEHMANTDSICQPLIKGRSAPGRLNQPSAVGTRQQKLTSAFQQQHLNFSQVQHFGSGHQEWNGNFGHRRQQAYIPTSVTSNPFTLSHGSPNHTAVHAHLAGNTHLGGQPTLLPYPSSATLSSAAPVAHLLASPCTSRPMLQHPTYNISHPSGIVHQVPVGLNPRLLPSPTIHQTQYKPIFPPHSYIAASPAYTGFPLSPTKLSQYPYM
Method in brief: as §2

[7] = target: T7, RPS6KA5 (Homo sapiens, UniProt O75582); test: filter binding kinase assay; assay type: biochemical; details: derived from % inhibition at 1 μM
T7 construct: purchased
T7 sequence (O75582 whole entry, species assumed): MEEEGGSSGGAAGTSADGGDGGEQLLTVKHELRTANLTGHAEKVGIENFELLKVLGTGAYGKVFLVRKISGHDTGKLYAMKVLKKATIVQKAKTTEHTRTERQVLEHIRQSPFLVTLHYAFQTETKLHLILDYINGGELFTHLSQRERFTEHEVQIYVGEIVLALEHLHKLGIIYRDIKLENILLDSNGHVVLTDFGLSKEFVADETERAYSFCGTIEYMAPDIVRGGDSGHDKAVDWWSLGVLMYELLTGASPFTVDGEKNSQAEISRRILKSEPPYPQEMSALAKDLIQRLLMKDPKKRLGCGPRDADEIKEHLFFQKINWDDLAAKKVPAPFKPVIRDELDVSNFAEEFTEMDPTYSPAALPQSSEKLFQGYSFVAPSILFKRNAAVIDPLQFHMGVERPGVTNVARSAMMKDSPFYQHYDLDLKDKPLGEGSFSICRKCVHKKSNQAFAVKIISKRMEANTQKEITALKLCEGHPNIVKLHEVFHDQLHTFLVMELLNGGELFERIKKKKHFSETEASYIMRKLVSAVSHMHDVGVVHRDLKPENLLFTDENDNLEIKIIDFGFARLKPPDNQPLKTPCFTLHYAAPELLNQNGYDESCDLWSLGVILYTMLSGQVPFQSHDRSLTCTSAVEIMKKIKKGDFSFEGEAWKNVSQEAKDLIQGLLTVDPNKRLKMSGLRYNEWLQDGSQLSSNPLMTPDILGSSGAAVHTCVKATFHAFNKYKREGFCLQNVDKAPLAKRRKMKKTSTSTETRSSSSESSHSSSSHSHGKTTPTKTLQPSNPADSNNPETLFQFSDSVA
Method in brief: as §2

[8] = target: T8, PLK1 (Homo sapiens, UniProt P53350); test: filter binding kinase assay; assay type: biochemical; details: derived from % inhibition at 1 μM
T8 construct: purchased
T8 sequence (P53350 whole entry, species assumed): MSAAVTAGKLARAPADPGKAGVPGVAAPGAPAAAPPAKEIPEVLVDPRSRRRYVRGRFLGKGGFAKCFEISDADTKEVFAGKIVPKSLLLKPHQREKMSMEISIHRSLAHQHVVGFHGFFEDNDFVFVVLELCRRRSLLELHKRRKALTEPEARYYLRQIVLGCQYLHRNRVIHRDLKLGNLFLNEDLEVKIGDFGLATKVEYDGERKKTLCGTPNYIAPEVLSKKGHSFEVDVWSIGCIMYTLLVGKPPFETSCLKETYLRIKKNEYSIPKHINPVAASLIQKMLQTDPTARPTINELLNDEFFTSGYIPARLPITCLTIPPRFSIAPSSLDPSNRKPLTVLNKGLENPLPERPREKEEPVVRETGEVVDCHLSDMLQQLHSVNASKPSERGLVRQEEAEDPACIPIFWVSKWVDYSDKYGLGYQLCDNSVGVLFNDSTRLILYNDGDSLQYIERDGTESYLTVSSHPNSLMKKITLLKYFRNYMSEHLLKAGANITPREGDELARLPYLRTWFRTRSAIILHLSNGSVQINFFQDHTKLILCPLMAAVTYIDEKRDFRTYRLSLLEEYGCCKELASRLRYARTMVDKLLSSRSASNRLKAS
Method in brief: as §2

[9] = target: T9, MAPK8 (Homo sapiens, UniProt P45983); test: filter binding kinase assay; assay type: biochemical; set-up: purchased; details: derived from % inhibition at 1 μM; first MAPK8 line
Protocol: as §1
Target sequence in this assay (P45983 whole entry, species assumed): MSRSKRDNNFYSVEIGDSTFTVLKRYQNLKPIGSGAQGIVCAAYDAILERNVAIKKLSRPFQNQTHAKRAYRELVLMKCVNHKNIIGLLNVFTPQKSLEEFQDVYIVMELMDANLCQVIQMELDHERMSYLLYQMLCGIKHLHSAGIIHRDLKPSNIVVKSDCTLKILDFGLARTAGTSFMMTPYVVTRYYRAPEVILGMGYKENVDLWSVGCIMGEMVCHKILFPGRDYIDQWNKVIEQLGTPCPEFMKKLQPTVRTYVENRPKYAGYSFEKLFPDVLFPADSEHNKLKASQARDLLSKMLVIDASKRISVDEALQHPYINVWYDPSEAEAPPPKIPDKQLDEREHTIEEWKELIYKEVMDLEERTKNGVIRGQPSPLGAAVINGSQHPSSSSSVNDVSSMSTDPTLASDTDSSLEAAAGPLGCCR

[10] = target: T9, MAPK8; test: filter binding kinase assay (second MAPK8 line); assay type: biochemical; details: read-out: residual kinase activity MAPK8
Protocol: as §1
Target sequence in this assay (P45983 whole entry): as the sequence (P45983 whole entry, species assumed) above

| SMILES | IC50 [1] [µM] | remaining activity at 1 µM [1] [%] | IC50 [2] [µM] | IC50 [3] [µM] | IC50 [4] [µM] | IC50 [5] [µM] | remaining activity at 1 µM ([5]; read-out: residual kinase activity Rock II) [%] | IC50 [6] [µM] | IC50 [7] [µM] | IC50 [8] [µM] | IC50 [9] [µM] | melting point [°C] | remaining activity at 1 µM [10] [%] |
| --- | --- | --- | --- | --- | --- | --- | --- | --- | --- | --- | --- | --- | --- |
| c1ccc(Cc2c[nH]c3ncsc23)cc1 [Compound A7, 6-benzyl-4H-pyrrolo[2,3-d]thiazole] | 0.01 to 1 | 27 | > 1 | 1 to 10 | > 1 | 0.01 to 1 | 36 | 1 to 10 | 1 to 10 | > 1 | 1 to 10 | 133 to 135 | – |
| Nc1ncsc1C#Cc1cnc2[nH]ccc2c1 [Compound A22, 5-(1H-pyrrolo[2,3-b]pyridin-5-ylethynyl)thiazol-4-ylamine] | 0.01 to 1 | 16 | 1 to 10 | > 1 | 10 to 100 | > 1 | – | 1 to 10 | 10 to 100 | 1 to 10 | – | – | 34 |
| CC(C)(C)OC(=O)Nc1nc(-c2ccncc2)sc1C#CCN1CCOCC1 [Compound A25, tert-butyl[5-(3-morpholin-4-ylprop-1-ynyl)-2-pyridin-4-ylthiazol-4-yl]-carbamate] | 10 to 100 | – | > 1 | > 1 | > 1 | 10 to 100 | – | 10 to 100 | 10 to 100 | > 1 | > 1 | – | – |
| CC(C)(C)OC(=O)Nc1ncsc1C#CCN1C(=O)c2ccccc2C1=O [Compound A26, tert-butyl{5-[3-(1,3-dioxo-1,3-dihydroisoindol-2-yl)prop-1-ynyl]-thiazol-4-yl}carbamate] | 0.01 to 1 | 24 | 10 to 100 | > 1 | 1 to 10 | > 1 | – | 10 to 100 | > 1 | > 1 | 10 to 100 | – | – |
| Nc1ncsc1C#Cc1cccc(O)c1 [Compound A27, 3-(4-aminothiazol-5-ylethynyl)phenol] | 0.01 to 1 | 49 | > 1 | 10 to 100 | 10 to 100 | 10 to 100 | – | 1 to 10 | 10 to 100 | 10 to 100 | 1 to 10 | – | – |
